Measurements: the NIST ThermoML archive (doi:10.1016/j.jct.2005.07.009)
± gives the expanded uncertainty stated by the source.

Columns and labels:
[1] = xn = mol fraction of the nth substance listed; conditions: 298.15 K, 101 kPa, Liquid, Vibrating tube method
[2] = excess molar enthalpy (molar enthalpy of mixing); xn = mol fraction of the nth substance listed; conditions: 298.15 K, 101 kPa, Liquid

Compound `BrCCCBr` [1,3-dibromopropane] + CCCC(=O)OCC has a mass density ([1]; x2 = 0.0436) of 1908.9 ± 1.2 kg/m3, a mass density ([1]; x2 = 0.0835) of 1854.01 ± 1.3 kg/m3 and a mass density ([1]; x2 = 0.1381) of 1781.05 ± 1.4 kg/m3. The mass density ([1]; x2 = 0.1859) was 1719.07 ± 1.6 kg/m3, the mass density ([1]; x2 = 0.2926) was 1586.65 ± 1.8 kg/m3 and the mass density ([1]; x2 = 0.4637) was 1389.88 ± 2 kg/m3. It also gave a mass density ([1]; x2 = 0.5238) of 1324.96 ± 2.1 kg/m3, a mass density ([1]; x2 = 0.6494) of 1195.57 ± 2.2 kg/m3 and a mass density ([1]; x2 = 0.7131) of 1133.02 ± 2.3 kg/m3. It also gave a mass density ([1]; x2 = 0.7811) of 1068.34 ± 2.3 kg/m3, a mass density ([1]; x2 = 0.852) of 1003.1 ± 2.3 kg/m3 and a mass density ([1]; x2 = 0.9215) of 941.15 ± 2.3 kg/m3. It also gave an excess molar enthalpy ([2]; x2 = 0.0406) of 0.00528 ± 0.000454 kcal/mol, an excess molar enthalpy ([2]; x2 = 0.0875) of 0.0082 ± 0.000502 kcal/mol and an excess molar enthalpy ([2]; x2 = 0.142) of 0.00906 ± 0.000502 kcal/mol. For the same compound, the excess molar enthalpy ([2]; x2 = 0.1949) was 0.00832 ± 0.000502 kcal/mol, the excess molar enthalpy ([2]; x2 = 0.2497) was 0.00576 ± 0.000454 kcal/mol and the excess molar enthalpy ([2]; x2 = 0.3027) was 0.00174 ± 0.000406 kcal/mol. It also gave an excess molar enthalpy ([2]; x2 = 0.3525) of -0.00265 ± 0.000406 kcal/mol, an excess molar enthalpy ([2]; x2 = 0.4005) of -0.00731 ± 0.000478 kcal/mol and an excess molar enthalpy ([2]; x2 = 0.4399) of -0.0109 ± 0.00055 kcal/mol. For the same compound, the excess molar enthalpy ([2]; x2 = 0.4453) was -0.0114 ± 0.00055 kcal/mol, the excess molar enthalpy ([2]; x2 = 0.4914) was -0.0149 ± 0.000621 kcal/mol and the excess molar enthalpy ([2]; x2 = 0.5444) was -0.0171 ± 0.000669 kcal/mol. The excess molar enthalpy ([2]; x2 = 0.6028) was -0.0185 ± 0.000717 kcal/mol, the excess molar enthalpy ([2]; x2 = 0.6668) was -0.019 ± 0.000717 kcal/mol and the excess molar enthalpy ([2]; x2 = 0.7369) was -0.0185 ± 0.000717 kcal/mol. It also gave an excess molar enthalpy ([2]; x2 = 0.8067) of -0.0161 ± 0.000669 kcal/mol and an excess molar enthalpy ([2]; x2 = 0.8771) of -0.0119 ± 0.000574 kcal/mol.

In the case of `BrCCCBr` [1,3-dibromopropane] + CCCCC(=O)OCC, the mass density ([1]; x2 = 0.0408) is reported as 1905.88 ± 1.2 kg/m3, the mass density ([1]; x2 = 0.0868) is reported as 1836.07 ± 1.4 kg/m3 and the mass density ([1]; x2 = 0.1296) is reported as 1773.38 ± 1.4 kg/m3. It also gave a mass density ([1]; x2 = 0.177) of 1707.11 ± 1.6 kg/m3, a mass density ([1]; x2 = 0.273) of 1579.99 ± 1.8 kg/m3 and a mass density ([1]; x2 = 0.325) of 1515.4 ± 1.9 kg/m3. It also gave a mass density ([1]; x2 = 0.3803) of 1449.57 ± 1.9 kg/m3, a mass density ([1]; x2 = 0.437) of 1385.12 ± 2 kg/m3 and a mass density ([1]; x2 = 0.5197) of 1296 ± 2.1 kg/m3. For the same compound, the mass density ([1]; x2 = 0.6902) was 1128.6 ± 2.2 kg/m3, the mass density ([1]; x2 = 0.7601) was 1065.64 ± 2.3 kg/m3 and the mass density ([1]; x2 = 0.8344) was 1001.96 ± 2.3 kg/m3. The mass density ([1]; x2 = 0.9163) was 935.2 ± 2.3 kg/m3, the excess molar enthalpy ([2]; x2 = 0.0175) was 0.00339 ± 0.00043 kcal/mol and the excess molar enthalpy ([2]; x2 = 0.0382) was 0.00617 ± 0.000478 kcal/mol. The excess molar enthalpy ([2]; x2 = 0.0611) was 0.00844 ± 0.000502 kcal/mol, the excess molar enthalpy ([2]; x2 = 0.0911) was 0.00906 ± 0.000502 kcal/mol and the excess molar enthalpy ([2]; x2 = 0.1259) was 0.00923 ± 0.000526 kcal/mol. For the same compound, the excess molar enthalpy ([2]; x2 = 0.1645) was 0.00882 ± 0.000502 kcal/mol, the excess molar enthalpy ([2]; x2 = 0.205) was 0.00784 ± 0.000502 kcal/mol and the excess molar enthalpy ([2]; x2 = 0.247) was 0.00564 ± 0.000454 kcal/mol. It also gave an excess molar enthalpy ([2]; x2 = 0.2878) of 0.00201 ± 0.000406 kcal/mol, an excess molar enthalpy ([2]; x2 = 0.3293) of -0.00241 ± 0.000406 kcal/mol and an excess molar enthalpy ([2]; x2 = 0.3706) of -0.00626 ± 0.000478 kcal/mol. For the same compound, the excess molar enthalpy ([2]; x2 = 0.4062) was -0.00927 ± 0.000526 kcal/mol, the excess molar enthalpy ([2]; x2 = 0.4471) was -0.0122 ± 0.000574 kcal/mol and the excess molar enthalpy ([2]; x2 = 0.4985) was -0.0154 ± 0.000645 kcal/mol. For the same compound, the excess molar enthalpy ([2]; x2 = 0.5544) was -0.017 ± 0.000669 kcal/mol, the excess molar enthalpy ([2]; x2 = 0.6183) was -0.0182 ± 0.000693 kcal/mol and the excess molar enthalpy ([2]; x2 = 0.6862) was -0.0188 ± 0.000717 kcal/mol. It also gave an excess molar enthalpy ([2]; x2 = 0.7558) of -0.0182 ± 0.000693 kcal/mol, an excess molar enthalpy ([2]; x2 = 0.8251) of -0.0156 ± 0.000645 kcal/mol and an excess molar enthalpy ([2]; x2 = 0.8833) of -0.0117 ± 0.000574 kcal/mol. The excess molar enthalpy ([2]; x2 = 0.946) was -0.00602 ± 0.000478 kcal/mol.

`BrCCCBr` [1,3-dibromopropane] + CCOC(=O)CC gave a mass density ([1]; x2 = 0.1075) of 1839.36 ± 1.4 kg/m3, a mass density ([1]; x2 = 0.161) of 1775.98 ± 1.6 kg/m3 and a mass density ([1]; x2 = 0.2159) of 1711.67 ± 1.7 kg/m3. The mass density ([1]; x2 = 0.2732) was 1645.81 ± 1.8 kg/m3, the mass density ([1]; x2 = 0.3842) was 1520.67 ± 2 kg/m3 and the mass density ([1]; x2 = 0.4468) was 1451.66 ± 2.2 kg/m3. For the same compound, the mass density ([1]; x2 = 0.5011) was 1392.66 ± 2.2 kg/m3, the mass density ([1]; x2 = 0.5622) was 1327.28 ± 2.3 kg/m3 and the mass density ([1]; x2 = 0.6827) was 1201.05 ± 2.4 kg/m3. The mass density ([1]; x2 = 0.7443) was 1137.95 ± 2.4 kg/m3, the mass density ([1]; x2 = 0.8686) was 1013.23 ± 2.4 kg/m3 and the excess molar enthalpy ([2]; x2 = 0.0471) was 0.00559 ± 0.000908 kcal/mol. It also gave an excess molar enthalpy ([2]; x2 = 0.1006) of 0.0087 ± 0.001 kcal/mol, an excess molar enthalpy ([2]; x2 = 0.1564) of 0.00918 ± 0.00103 kcal/mol and an excess molar enthalpy ([2]; x2 = 0.2139) of 0.00786 ± 0.00098 kcal/mol. For the same compound, the excess molar enthalpy ([2]; x2 = 0.2707) was 0.00387 ± 0.00086 kcal/mol, the excess molar enthalpy ([2]; x2 = 0.3244) was -0.000813 ± 0.000765 kcal/mol and the excess molar enthalpy ([2]; x2 = 0.3765) was -0.00605 ± 0.000932 kcal/mol. For the same compound, the excess molar enthalpy ([2]; x2 = 0.4201) was -0.0111 ± 0.0011 kcal/mol, the excess molar enthalpy ([2]; x2 = 0.4478) was -0.0156 ± 0.00122 kcal/mol and the excess molar enthalpy ([2]; x2 = 0.4591) was -0.0195 ± 0.00134 kcal/mol. For the same compound, the excess molar enthalpy ([2]; x2 = 0.493) was -0.0144 ± 0.00598 kcal/mol, the excess molar enthalpy ([2]; x2 = 0.4983) was -0.0205 ± 0.00139 kcal/mol and the excess molar enthalpy ([2]; x2 = 0.5563) was -0.0245 ± 0.00151 kcal/mol. It also gave an excess molar enthalpy ([2]; x2 = 0.6207) of -0.026 ± 0.00155 kcal/mol, an excess molar enthalpy ([2]; x2 = 0.6908) of -0.0251 ± 0.00153 kcal/mol and an excess molar enthalpy ([2]; x2 = 0.7671) of -0.0219 ± 0.00141 kcal/mol. It also gave an excess molar enthalpy ([2]; x2 = 0.8476) of -0.0164 ± 0.00124 kcal/mol and an excess molar enthalpy ([2]; x2 = 0.9262) of -0.00906 ± 0.00103 kcal/mol.

In the case of `BrCCCBr` [1,3-dibromopropane] + CCOC(C)=O, the mass density ([1]; x2 = 0.057) is reported as 1910.48 ± 1.3 kg/m3, the mass density ([1]; x2 = 0.1189) is reported as 1845.49 ± 1.5 kg/m3 and the mass density ([1]; x2 = 0.1785) is reported as 1782.59 ± 1.6 kg/m3. The mass density ([1]; x2 = 0.2647) was 1691.31 ± 1.8 kg/m3, the mass density ([1]; x2 = 0.3199) was 1632.54 ± 2 kg/m3 and the mass density ([1]; x2 = 0.4187) was 1526.9 ± 2.2 kg/m3. For the same compound, the mass density ([1]; x2 = 0.466) was 1476.19 ± 2.2 kg/m3, the mass density ([1]; x2 = 0.5091) was 1429.89 ± 2.3 kg/m3 and the mass density ([1]; x2 = 0.6323) was 1296.79 ± 2.4 kg/m3. It also gave a mass density ([1]; x2 = 0.6746) of 1250.93 ± 2.4 kg/m3, a mass density ([1]; x2 = 0.7715) of 1145.6 ± 2.5 kg/m3 and a mass density ([1]; x2 = 0.8309) of 1080.67 ± 2.5 kg/m3. The mass density ([1]; x2 = 0.8892) was 1016.69 ± 2.4 kg/m3, the mass density ([1]; x2 = 0.9615) was 937.08 ± 2.4 kg/m3 and the excess molar enthalpy ([2]; x2 = 0.0601) was 0.0131 ± 0.000574 kcal/mol. For the same compound, the excess molar enthalpy ([2]; x2 = 0.127) was 0.0223 ± 0.000789 kcal/mol, the excess molar enthalpy ([2]; x2 = 0.195) was 0.0295 ± 0.000956 kcal/mol and the excess molar enthalpy ([2]; x2 = 0.2607) was 0.0333 ± 0.00105 kcal/mol. It also gave an excess molar enthalpy ([2]; x2 = 0.3258) of 0.0342 ± 0.00108 kcal/mol, an excess molar enthalpy ([2]; x2 = 0.3855) of 0.0332 ± 0.00105 kcal/mol and an excess molar enthalpy ([2]; x2 = 0.4407) of 0.0304 ± 0.00098 kcal/mol. It also gave an excess molar enthalpy ([2]; x2 = 0.4829) of 0.0271 ± 0.000908 kcal/mol, an excess molar enthalpy ([2]; x2 = 0.487) of 0.0269 ± 0.000908 kcal/mol and an excess molar enthalpy ([2]; x2 = 0.5298) of 0.0219 ± 0.000789 kcal/mol. For the same compound, the excess molar enthalpy ([2]; x2 = 0.5741) was 0.0169 ± 0.000669 kcal/mol, the excess molar enthalpy ([2]; x2 = 0.628) was 0.0109 ± 0.00055 kcal/mol and the excess molar enthalpy ([2]; x2 = 0.687) was 0.00531 ± 0.000454 kcal/mol. It also gave an excess molar enthalpy ([2]; x2 = 0.7498) of 0.000765 ± 0.000382 kcal/mol, an excess molar enthalpy ([2]; x2 = 0.8153) of -0.00174 ± 0.000406 kcal/mol and an excess molar enthalpy ([2]; x2 = 0.8813) of -0.00241 ± 0.00043 kcal/mol. For the same compound, the excess molar enthalpy ([2]; x2 = 0.9434) was -0.00136 ± 0.000406 kcal/mol.
